Target: T1, MARK3 (Homo sapiens, UniProt P27448)
T1 construct: purchased University of Dundee
Assay: MARK 3 Assay (HTRF, Cdc25C biotinylated peptide substrate)
Format: biochemical
Conditions: recombinant MARK3 enzyme, 10 μM ATP, 1 μM peptide substrate
Protocol: MARK3 activity was assayed in vitro using a Cdc25C biotinylated peptide substrate (Cell Signalling Technologies). The phosphopeptide product was quantitated using a Homogenous Time-Resolved Fluorescence (HTRF) assay system (Park et al., 1999, Anal. Biochem. 269:94-104). The reaction mixture contained 50 mM HEPES/Tris-HCl, pH 7.4; 10 mM NaCl, 5 mM MgCl2, 0.2 mM NaVO4, 5 mM β-glycerol phosphate, 0.1% Tween-20, 2 mM dithiothreitol, 0.1% BSA, 10 μM ATP, 1 μM peptide substrate, and 10 nM recombinant MARK3 enzyme (University of Dundee) in a final volume of 12 μl. The buffer additionally contained protease inhibitor cocktail (Roche EDTA-free, 1 tab per 50 ml). The kinase reaction was incubated for 2 hours at 25° C., and then terminated with 3 μl Stop/Detection Buffer (50 mM HEPES, pH 7.0, 16.6 mM EDTA, 0.5M KF, 0.1% Tween-20, 0.1% BSA, 2 μg/ml SLX^ent 665 (CISBIO), and 2 μg/ml Eu^3+ cryptate label antibody (CISBIO)). The reaction was allowed to equilibrate overnight at 0° C., and relative fluorescent units were read on an HTRF enabled plate reader (e.g. TECAN GENios Pro). Inhibitor compounds were assayed in the reaction described above to determine compound IC50s. Aliquots of compound dissolved in DMSO were added to the reaction wells in a third-log dilution series covering a range of 1 nM to 10 μM. Relative phospho substrate formation, read as HTRF fluorescence units, was measured over the range of compound concentrations and a titration curve generated.

T1 sequence (P27448 whole entry, species assumed): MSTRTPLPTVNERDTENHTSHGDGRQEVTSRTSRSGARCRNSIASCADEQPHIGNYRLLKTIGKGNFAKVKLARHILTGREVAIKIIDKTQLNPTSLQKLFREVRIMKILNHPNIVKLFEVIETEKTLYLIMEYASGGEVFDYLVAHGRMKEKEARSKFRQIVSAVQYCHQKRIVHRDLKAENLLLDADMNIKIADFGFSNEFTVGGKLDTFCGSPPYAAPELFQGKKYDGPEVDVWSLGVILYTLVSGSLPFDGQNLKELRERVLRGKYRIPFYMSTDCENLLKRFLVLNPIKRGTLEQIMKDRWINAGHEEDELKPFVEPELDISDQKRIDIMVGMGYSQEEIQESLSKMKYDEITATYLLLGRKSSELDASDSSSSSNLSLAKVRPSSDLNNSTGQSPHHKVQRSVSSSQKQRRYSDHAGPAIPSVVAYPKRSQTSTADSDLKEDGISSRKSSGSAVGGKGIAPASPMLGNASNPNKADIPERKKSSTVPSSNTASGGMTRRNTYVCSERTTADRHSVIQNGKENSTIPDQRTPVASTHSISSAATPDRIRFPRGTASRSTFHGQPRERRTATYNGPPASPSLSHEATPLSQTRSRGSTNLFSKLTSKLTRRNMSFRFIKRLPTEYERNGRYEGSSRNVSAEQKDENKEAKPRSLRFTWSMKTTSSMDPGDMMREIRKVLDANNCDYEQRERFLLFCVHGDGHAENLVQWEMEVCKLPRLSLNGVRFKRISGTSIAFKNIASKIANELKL

SMILES | IC50
O=C(Nc1ncn2c(C(F)(F)F)csc12)c1ccc(OCCN2CCCCC2)cc1 [Example 12, 4-(2-Piperidin-1-ylethoxy)-N-[3-(trifluoromethyl)imidazo[5,1-b][1,3]thiazol-7-yl]benzamide] | < 100 nM
O=C(Nc1ncn2c(C(F)(F)F)csc12)c1ccc(CO)cc1 [Example 14, 4-(Hydroxymethyl)-N-[3-(trifluoromethyl)imidazo[5,1-b][1,3]thiazol-7-yl]benzamide] | 100 to 500 nM
O=C(Nc1ncn2c(C(F)(F)F)csc12)c1ccc(CN2CCCCC2)cc1 [Example 17, 4-(Piperidin-1-ylmethyl)-N-[3-(trifluoromethyl)imidazo[5,1-b][1,3]thiazol-7-yl]benzamide] | 100 to 500 nM
O=C(Nc1ncn2c(C(F)(F)F)csc12)c1ccc(CN2CCOCC2)cc1 [Example 16, 4-(Morpholin-4-ylmethyl)-N-[3-(trifluoromethyl)imidazo[5,1-b][1,3]thiazol-7-yl]benzamide] | 100 to 500 nM
O=C(Nc1ncn2c(C(F)(F)F)csc12)c1ccc(F)cc1 [Example 1, 4-Fluoro-N-[3-(trifluoromethyl)imidazo[5,1-b][1,3]thiazol-7-yl]benzamide] | 100 to 500 nM
O=C(Nc1ncn2c(C(F)(F)F)csc12)c1ccc(Cl)cc1 [Example 7, 4-Chloro-N-[3-(trifluoromethyl)imidazo[5,1-b][1,3]thiazol-7-yl]benzamide] | 100 to 500 nM

Further lines, results first:

IC50 | SMILES
100 to 500 nM | CN1CCN(Cc2ccc(C(=O)Nc3ncn4c(C(F)(F)F)csc34)cc2)CC1 [Example 18, 4-[(4-methylpiperazin-1-yl)methyl]-N-[3-(trifluoromethyl)imidazo[5,1-b][1,3]thiazol-7-yl]benzamide]
100 to 500 nM | O=C(Nc1ncn2c(C(F)(F)F)csc12)c1ccc(N2CCOCC2)cc1 [Example 9]
< 100 nM | CN1CCN(c2ccc(C(=O)Nc3ncn4c(C(F)(F)F)csc34)cc2)CC1 [Example 8, 4-(4-Methylpiperazin-1-yl)-N-[3-(trifluoromethyl)imidazo[5,1-b][1,3]thiazol-7-yl]benzamide]

Same assay, conditions: recombinant MARK3 enzyme, 10 μM ATP, range given with mixed units (500 nM to 1 μM), units kept in the value

SMILES | IC50
O=C(Nc1ncn2c(C(F)(F)F)csc12)c1ccc(O)cc1 [Example 2, 4-Hydroxy-N-[3-(trifluoromethyl)imidazo[5,1-b][1,3]thiazol-7-yl]benzamide] | 500 to 1000 nM
O=C(Nc1ncn2c(C(F)(F)F)csc12)c1ccc(CO)cc1 [Example 14, 4-(Hydroxymethyl)-N-[3-(trifluoromethyl)imidazo[5,1-b][1,3]thiazol-7-yl]benzamide] | 500 to 1000 nM
CN1CCN(c2ccc(C(=O)Nc3ncn4c(C(F)(F)F)csc34)cn2)CC1 [Example 19, 6-(4-methylpiperazin-1-yl)-N-[3-(trifluoromethyl)imidazo[5,1-b][1,3]thiazol-7-yl]nicotinamide] | 500 to 1000 nM
O=C(Nc1ncn2c(C(F)(F)F)csc12)c1cccc(OCCN2CCCCC2)c1 [Example 13, 3-(2-Piperidin-1-ylethoxy)-N-[3-(trifluoromethyl)imidazo[5,1-b][1,3]thiazol-7-yl]benzamide] | 500 to 1000 nM
